Test system: human lymphocyte
Test: Human lymphocyte chromosomal aberration assay
Assay type: cell-based
Settings: in vitro
Text: SRA141 was negative for both mutagenicity and clastogenicity in in vitro bacterial reverse mutation and human lymphocyte chromosomal aberration assays.

CCOC(=O)C1=C(NN2CCN(CC(F)(F)F)CC2)O/C(=C\c2c[nH]c3ncccc23)C1=O [SRA141]
clastogenicity: negative
